Experimental findings from patent US6566047B1, “Method for identifying neurite-growth promoting agents” (The Regents of the University of Colorado, priority 1998, dated 2003) are described below.

Like-named read-outs stand apart in the source and are kept apart here.

Data set [1] concerns growth cones in cultures of rat cerebral cortex. Kind of data set: Growth cone collapse assay in cortical neuron culture. The data set is classed as cell-based. To be noted: thrombin 100 nM. An outline of the steps:
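Cortical explants from E18 Sprague-Dawley rats were grown 2–3 days on poly-D-lysine, serum-free after 24 h, then pre-incubated 30–60 min at 37 °C with inhibitor or vehicle before repellent factor challenge for 1–30 min. Collapse was graded in randomly selected growth cones in aldehyde-fixed cultures (fixed after 7 min) or imaged live.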

A further data set relates to protein kinase C (PKC). Kind of data set: MARCKS phosphorylation by PKC in isolated GCPs. The data set is classed as biochemical, rat. To be noted: isolated growth cones. From the text:
FIG. 7A. Thrombin stimulates MARCKS phosphorylation in a 12-LOX-dependent manner. FIG. 7B. 12(S)-HETE stimulates MARCKS phosphorylation by PKC in isolated GCPs. […] Polypeptides were resolved by SDS-PAGE. MARCKS phosphorylation was quantified by phosphorimaging.

The next data set concerns phospholipase C. The following applies: thrombin stimulation as for PLA2.

Description for phospholipase C: MAT-Lu cells were plated at a density of 0.5×10^6 cells per flask (T-75) and grown as detailed above to approximately 25% confluency. On the day before the experiments, the serum level in the medium was dropped to 1%. Cells were fed with fresh 1% serum-medium 4 hrs prior to harvest. For harvesting, cells were rinsed with Ca^++,Mg^++-free HBSS, covered with 2 ml cold Ca^++-free modified Krebs buffer (220 mM sucrose, 50 mM NaCl, 5 mM KCl, 22 mM HEPES, 10 mM glucose. 1.2 mM NaH2PO4 and 1.2 mM MgCl2, pH 7.3), and placed on ice. Cells were scraped off, pelleted for 5 min at 200 rpm and re-suspended in a minimal volume of Krebs buffer. Aliquots were used to determine protein concentration (Biorad Assay) and phopholipase activity. […] Lipid extraction followed by thin-layer chromatography (Negre-Aminou et al., J Neurochem 67:2599-2608 (1996)) isolated the reaction product (identified by co-migration with AA standard), which was then scraped off the plates and analyzed in a scintillation spectrometer (Beckman). In some experiments, especially those involving ^14C-AA-phosphatidylinositol as substrate, the diacylglycerol-containing band (identified by co-migration of standard) also was scraped and counted in order to measure phospholipase C (PLC) activity.

In the case of “thrombin: potent growth cone repellent; commercially available thrombin (Sigma); rat thrombin in Boyden assays”, the “time until most growth cones are fully collapsed” value in data set [1] was 10 to 20 min. Besides, the “growth cone collapse, agent alone” value in data set [1] (TRAP (100 mM), 12(S)-HETE 10^−7 M) was “most growth cones are fully collapsed”. The “stimulation of MARCKS and GAP43 phosphorylation” value with protein kinase C (PKC) was “stimulates MARCKS and GAP43 phosphorylation”. Moreover, the figures for the “effect on DAG release from PI / phospholipase C (words)” value with phospholipase C and in the data set with phospholipase C (listed as Thrombin) were “reduced DAG release rather than stimulating it” and “did not activate phospholipase C in MAT-Lu cells”, respectively.
